target: FXR (Homo sapiens (Human), UniProt Q96RI1); test: transient human FXR/Gal4-luciferase reporter assay; format: cell-based; conditions: Gal4-hFXR fusion construct, HEK293 reporter cells; response relative to 8 μM GW-4064
How it was run: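 HEK293 cells stably carrying a 5×Gal4 response element–firefly luciferase reporter were transiently transfected overnight with a Gal4 DBD–human FXR LBD fusion plasmid. Compound was added in DMSO and cells were incubated overnight at 37 °C, 5% CO2. Activity was read as Steady-Glo luminescence.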

Chain of FXR (Q96RI1 262-486): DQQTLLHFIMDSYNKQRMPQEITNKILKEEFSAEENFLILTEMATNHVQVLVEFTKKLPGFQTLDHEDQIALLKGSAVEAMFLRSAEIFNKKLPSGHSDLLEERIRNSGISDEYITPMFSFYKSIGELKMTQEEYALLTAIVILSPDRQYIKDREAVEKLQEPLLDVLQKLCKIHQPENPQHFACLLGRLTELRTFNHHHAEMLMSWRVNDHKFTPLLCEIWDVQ

Structure (SMILES) | EC50
Cc1nc2ccc(-c3cccc(N(CC45CCC(c6noc(C7(C)CC7)n6)(CC4)CC5)C(=O)C45CC(F)(C4)C5)c3)cc2s1 [Example 402, 3-fluoro-N-(3-(2-methylbenzo[d]thiazol-6-yl)phenyl)-N-((4-(5-(1-methylcyclopropyl)-1,2,4-oxadiazol-3-yl)bicyclo[2.2.2]octan-1-yl)methyl)bicyclo[1.1.1]pentane-1-carboxamide] | 35 nM
CC1(c2nc(C34CCC(CN(C(=O)C56CC(F)(C5)C6)c5cccc(-c6cnc(C7CC7)nc6)c5)(CC3)CC4)no2)CC1 [Example 403, N-(3-(2-cyclopropylpyrimidin-5-yl)phenyl)-3-fluoro-N-((4-(5-(1-methylcyclopropyl)-1,2,4-oxadiazol-3-yl)bicyclo[2.2.2]octan-1-yl)methyl)bicyclo[1.1.1]pentane-1-carboxamide] | 100 nM
CC1(c2nc(C34CCC(CN(C(=O)C56CC(F)(C5)C6)c5cccc(-c6cnc(C(F)(F)F)nc6)c5)(CC3)CC4)no2)CC1 [Example 404, 3-fluoro-N-((4-(5-(1-methylcyclopropyl)-1,2,4-oxadiazol-3-yl)bicyclo[2.2.2]octan-1-yl)methyl)-N-(3-(2-(trifluoromethyl)pyrimidin-5-yl)phenyl)bicyclo[1.1.1]pentane-1-carboxamide] | 221 nM
CC1(c2nc(C34CCC(CN(C(=O)C56CC(F)(C5)C6)c5cccc(-c6ccc(OC(F)F)cc6)c5)(CC3)CC4)no2)CC1 [Example 405, N-(4′-(difluoromethoxy)-[1,1′-biphenyl]-3-yl)-3-fluoro-N-((4-(5-(1-methylcyclopropyl)-1,2,4-oxadiazol-3-yl)bicyclo[2.2.2]octan-1-yl)methyl)bicyclo[1.1.1]pentane-1-carboxamide] | 53 nM
Cn1nc(C23CCC(CN(C(=O)C45CC(F)(C4)C5)c4cccc(-c5ccc(NS(C)(=O)=O)cc5)c4)(CC2)CC3)cc1C1CC1 [Example 406, N-((4-(5-cyclopropyl-1-methyl-1H-pyrazol-3-yl)bicyclo[2.2.2]octan-1-yl)methyl)-3-fluoro-N-(4′-(methylsulfonamido)-[1,1′-biphenyl]-3-yl)bicyclo[1.1.1]pentane-1-carboxamide] | 203 nM
CCOc1ncc(-c2cccc(N(CC34CCC(c5cc(C6CC6)n(C)n5)(CC3)CC4)C(=O)C34CC(F)(C3)C4)c2)cn1 [Example 407, N-((4-(5-cyclopropyl-1-methyl-1H-pyrazol-3-yl)bicyclo[2.2.2]octan-1-yl)methyl)-N-(3-(2-ethoxypyrimidin-5-yl)phenyl)-3-fluorobicyclo[1.1.1]pentane-1-carboxamide] | 209 nM
COc1ccc(-c2cccc(N(CC34CCC(c5cc(C6CC6)n(C)n5)(CC3)CC4)C(=O)C34CC(F)(C3)C4)c2)cc1 [Example 408, N-((4-(5-cyclopropyl-1-methyl-1H-pyrazol-3-yl)bicyclo[2.2.2]octan-1-yl)methyl)-3-fluoro-N-(4′-methoxy-[1,1′-biphenyl]-3-yl)bicyclo[1.1.1]pentane-1-carboxamide] | 160 nM
Cc1nc2ccc(-c3cccc(N(CC45CCC(c6cc(C7CC7)n(C)n6)(CC4)CC5)C(=O)C45CC(F)(C4)C5)c3)cc2s1 [Example 409, N-((4-(5-cyclopropyl-1-methyl-1H-pyrazol-3-yl)bicyclo[2.2.2]octan-1-yl)methyl)-3-fluoro-N-(3-(2-methylbenzo[d]thiazol-6-yl)phenyl)bicyclo[1.1.1]pentane-1-carboxamide] | 73 nM
Cn1nc(C23CCC(CN(C(=O)C45CC(F)(C4)C5)c4cccc(-c5cnc6nc(C7CC7)sc6c5)c4)(CC2)CC3)cc1C1CC1 [Example 410, N-((4-(5-cyclopropyl-1-methyl-1H-pyrazol-3-yl)bicyclo[2.2.2]octan-1-yl)methyl)-N-(3-(2-cyclopropylthiazolo[4,5-b]pyridin-6-yl)phenyl)-3-fluorobicyclo[1.1.1]pentane-1-carboxamide] | 465 nM
Cn1nc(C23CCC(CN(C(=O)C45CC(F)(C4)C5)c4cccc(-c5ccc6[nH]c(=O)oc6c5)c4)(CC2)CC3)cc1C1CC1 [Example 411, N-((4-(5-cyclopropyl-1-methyl-1H-pyrazol-3-yl)bicyclo[2.2.2]octan-1-yl)methyl)-3-fluoro-N-(3-(2-oxo-2,3-dihydrobenzo[d]oxazol-6-yl)phenyl)bicyclo[1.1.1]pentane-1-carboxamide] | 144 nM
Cn1nc(C2CC2)cc1C12CCC(CN(C(=O)C34CC(F)(C3)C4)c3cccc(-c4ccc(NS(C)(=O)=O)cc4)c3)(CC1)CC2 [Example 412, N-((4-(3-cyclopropyl-1-methyl-1H-pyrazol-5-yl)bicyclo[2.2.2]octan-1-yl)methyl)-3-fluoro-N-(4′-(methylsulfonamido)-[1,1′-biphenyl]-3-yl)bicyclo[1.1.1]pentane-1-carboxamide] | 105 nM
CCOc1ncc(-c2cccc(N(CC34CCC(c5cc(C6CC6)nn5C)(CC3)CC4)C(=O)C34CC(F)(C3)C4)c2)cn1 [Example 413, N-((4-(3-cyclopropyl-1-methyl-1H-pyrazol-5-yl)bicyclo[2.2.2]octan-1-yl)methyl)-N-(3-(2-ethoxypyrimidin-5-yl)phenyl)-3-fluorobicyclo[1.1.1]pentane-1-carboxamide] | 192 nM
COc1ccc(-c2cccc(N(CC34CCC(c5cc(C6CC6)nn5C)(CC3)CC4)C(=O)C34CC(F)(C3)C4)c2)cc1 [Example 414, N-((4-(3-cyclopropyl-1-methyl-1H-pyrazol-5-yl)bicyclo[2.2.2]octan-1-yl)methyl)-3-fluoro-N-(4′-methoxy-[1,1′-biphenyl]-3-yl)bicyclo[1.1.1]pentane-1-carboxamide] | 85 nM
Cc1nc2ccc(-c3cccc(N(CC45CCC(c6cc(C7CC7)nn6C)(CC4)CC5)C(=O)C45CC(F)(C4)C5)c3)cc2s1 [Example 415, N-((4-(3-cyclopropyl-1-methyl-1H-pyrazol-5-yl)bicyclo[2.2.2]octan-1-yl)methyl)-3-fluoro-N-(3-(2-methylbenzo[d]thiazol-6-yl)phenyl)bicyclo[1.1.1]pentane-1-carb oxamide] | 125 nM
CN1CCN(c2cccc(N(CC34CCC(c5nc(C6CC6)no5)(CC3)CC4)C(=O)C34CC(F)(C3)C4)c2)CC1 [Example 416, N-((4-(3-cyclopropyl-1,2,4-oxadiazol-5-yl)bicyclo[2.2.2]octan-1-yl)methyl)-3-fluoro-N-(3-(4-methylpiperazin-1-yl)phenyl)bicyclo[1.1.1]pentane-1-carboxamide] | 1060 nM
CCOc1ncc(-c2cccc(N(CC34CCC(c5cnc(C(F)(F)F)nc5)(CC3)OC4)C(=O)C34CC(F)(C3)C4)c2)cn1 [Example 418, N-(3-(2-ethoxypyrimidin-5-yl)phenyl)-3-fluoro-N-((1-(2-(trifluoromethyl)pyrimidin-5-yl)-2-oxabicyclo[2.2.2]octan-4-yl)methyl)bicyclo[1.1.1]pentane-1-carboxamide] | 2040 nM
CS(=O)(=O)Nc1ccc(-c2cccc(N(CC34CCC(c5cnc(C(F)(F)F)nc5)(CC3)OC4)C(=O)C34CC(F)(C3)C4)c2)cc1 [Example 419, 3-fluoro-N-(4′-(methylsulfonamido)-[1,1′-biphenyl]-3-yl)-N-((1-(2-(trifluoromethyl)pyrimidin-5-yl)-2-oxabicyclo[2.2.2]octan-4-yl)methyl)bicyclo[1.1.1]pentane-1-carboxamide] | 523 nM
COc1ccc(-c2cccc(N(CC34CCC(c5cnc(C(F)(F)F)nc5)(CC3)OC4)C(=O)C34CC(F)(C3)C4)c2)cc1 [Example 420, 3-fluoro-N-(4′-methoxy-[1,1′-biphenyl]-3-yl)-N-((1-(2-(trifluoromethyl)pyrimidin-5-yl)-2-oxabicyclo[2.2.2]octan-4-yl)methyl)bicyclo[1.1.1]pentane-1-carboxamide] | 802 nM
Cc1nc2ccc(-c3cccc(N(CC45CCC(c6cnc(C(F)(F)F)nc6)(CC4)OC5)C(=O)C45CC(F)(C4)C5)c3)cc2s1 [Example 421, 3-fluoro-N-(3-(2-methylbenzo[d]thiazol-6-yl)phenyl)-N-((1-(2-(trifluoromethyl)pyrimidin-5-yl)-2-oxabicyclo[2.2.2]octan-4-yl)methyl)bicyclo[1.1.1]pentane-1-carboxamide] | 2170 nM
CCOc1ccc(-c2cccc(N(CC34CCC(c5cnc(C(F)(F)F)nc5)(CC3)OC4)C(=O)C34CC(F)(C3)C4)c2)cc1 [Example 422, N-(4′-ethoxy-[1,1′-biphenyl]-3-yl)-3-fluoro-N-((1-(2-(trifluoromethyl)pyrimidin-5-yl)-2-oxabicyclo[2.2.2]octan-4-yl)methyl)bicyclo[1.1.1]pentane-1-carboxamide] | 1520 nM
CCOc1ncc(-c2cncc(N(CC34CCC(c5nc(C6CC6)no5)(CC3)CC4)C(=O)C34CC(F)(C3)C4)c2)cn1 [Example 423, N-((4-(3-cyclopropyl-1,2,4-oxadiazol-5-yl)bicyclo[2.2.2]octan-1-yl)methyl)-N-(5-(2-ethoxypyrimidin-5-yl)pyridin-3-yl)-3-fluorobicyclo[1.1.1]pentane-1-carboxamide] | 238 nM
CCOc1ccc(-c2cncc(N(CC34CCC(c5nc(C6CC6)no5)(CC3)CC4)C(=O)C34CC(F)(C3)C4)c2)cc1 [Example 424, N-((4-(3-cyclopropyl-1,2,4-oxadiazol-5-yl)bicyclo[2.2.2]octan-1-yl)methyl)-N-(5-(4-ethoxyphenyl)pyridin-3-yl)-3-fluorobicyclo[1.1.1]pentane-1-carboxamide] | 483 nM
Cc1nc2ccc(-c3cncc(N(CC45CCC(c6nc(C7CC7)no6)(CC4)CC5)C(=O)C45CC(F)(C4)C5)c3)cc2s1 [Example 425, N-((4-(3-cyclopropyl-1,2,4-oxadiazol-5-yl)bicyclo[2.2.2]octan-1-yl)methyl)-3-fluoro-N-(5-(2-methylbenzo[d]thiazol-6-yl)pyridin-3-yl)bicyclo[1.1.1]pentane-1-carboxamide] | 198 nM
CCOc1ccc(-c2cncc(N(CC34CCC(c5nc(C6CC6)no5)(CC3)CC4)C(=O)C34CC(F)(C3)C4)c2)cn1 [Example 426, N-((4-(3-cyclopropyl-1,2,4-oxadiazol-5-yl)bicyclo[2.2.2]octan-1-yl)methyl)-N-(6′-ethoxy-[3,3′-bipyridin]-5-yl)-3-fluorobicyclo[1.1.1]pentane-1-carboxamide] | 417 nM

Reference: patent US11254663B2 (BRISTOL-MYERS SQUIBB COMPANY, priority 2019, dated 2022)
